The values that follow come from patent US20240383954A1, “PEPTIDE INHIBITORS OF INTERLEUKIN-23 RECEPTOR AND THEIR USE TO TREAT INFLAMMATORY DISEASES” (Janssen Biotech, Inc., priority 2020, published 2024).

Each structure is given as a SMILES string. Positions of bridges follow the written chain, without caps; N, C: chain ends. Non-standard residues stand in square brackets, D forms with d. Residues, ends and D or L forms follow the SMILES beside them. Trp(7-Me) = Cc1cccc2c(C[C@H](N)C(=O)O)c[nH]c12; 2Nal = N[C@@H](Cc1ccc2ccccc2c1)C(=O)O; AEF = NCCOc1ccc(C[C@H](N)C(=O)O)cc1; αMeF = C[C@](N)(Cc1ccccc1)C(=O)O; Pen = CC(C)(S)[C@H](N)C(=O)O; αMeK = C[C@](N)(CCCCN)C(=O)O; Ac5c = NC1(C(=O)O)CCCC1; Thp = NC1(C(=O)O)CCOCC1
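Also: cryopreserved PBMCs stimulated at 37 °C in 5% CO2, then lysed, with phosphorylated STAT3 quantified in lysates using a phospho-STAT panel kit.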

The target in this assay is IL-23R (Homo sapiens, UniProt Q5VWK5). The experiment in a line: cell-based. As to conditions: PBMC pSTAT3 IC50 (nM), PBMCs from healthy donors, IL-23 5 ng/mL, 30 minutes, phosphorylated STAT3.
Chain of IL-23R (Q5VWK5 24-629): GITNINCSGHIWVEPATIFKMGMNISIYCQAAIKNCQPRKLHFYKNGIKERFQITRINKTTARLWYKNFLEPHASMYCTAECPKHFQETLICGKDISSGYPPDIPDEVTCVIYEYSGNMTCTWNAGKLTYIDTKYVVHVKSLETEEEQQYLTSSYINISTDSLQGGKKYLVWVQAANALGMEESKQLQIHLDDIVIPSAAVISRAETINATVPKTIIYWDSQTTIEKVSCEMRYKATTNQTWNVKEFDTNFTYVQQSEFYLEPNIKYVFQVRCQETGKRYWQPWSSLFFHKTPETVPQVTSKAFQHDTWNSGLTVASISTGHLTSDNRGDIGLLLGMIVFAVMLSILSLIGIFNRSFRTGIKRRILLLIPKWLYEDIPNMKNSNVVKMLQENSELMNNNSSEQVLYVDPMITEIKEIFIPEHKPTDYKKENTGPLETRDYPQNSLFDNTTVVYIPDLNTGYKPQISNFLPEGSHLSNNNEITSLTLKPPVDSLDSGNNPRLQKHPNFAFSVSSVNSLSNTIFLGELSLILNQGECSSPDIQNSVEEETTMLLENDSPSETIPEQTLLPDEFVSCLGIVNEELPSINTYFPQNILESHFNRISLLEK
The molecule `CC(=O)N[C@H](CCCNC(=N)N)C(=O)N[C@H]1CCSC[C@@H](C(=O)N[C@@H](Cc2ccc(OCCN)cc2)C(=O)N[C@@H](Cc2ccc3ccccc3c2)C(=O)NC2(C(=O)N[C@@](C)(CCC(=O)O)C(=O)N[C@@H](CC(N)=O)C(=O)N[C@@H](Cc3c[nH]c4ccc(F)cc34)C(N)=O)CCOCC2)NC(=O)[C@H](CCC(N)=O)NC(=O)[C@H](Cc2c[nH]c3ccccc23)NC(=O)[C@H]([C@@H](C)O)NC(=O)[C@H](CCC(N)=O)NC1=O` [Compound 81, Ac-[(D)Arg]-[Abu]-Q-T-W-Q-[Cys]-Phe[4-(2-aminoethoxy)]-[2-Nal]-[THP]-[aMeGlu]-N-[W(5-F)]-NH2] yielded an IC50 of 30 nM. In the case of `CC(=O)NCCCC[C@@H]1NC(=O)[C@H](Cc2c[nH]c3ccccc23)NC(=O)[C@H]([C@@H](C)O)NC(=O)[C@H](CCC(N)=O)NC(=O)[C@@H](NC(C)=O)C(C)(C)SSC(C)(C)[C@@H](C(=O)N[C@@H](Cc2ccc(OCCN)cc2)C(=O)N[C@@H](Cc2ccc3ccccc3c2)C(=O)N[C@@](C)(CCCCN)C(=O)N[C@@H](CCCCNC(C)=O)C(=O)N[C@@H](CC(N)=O)C(=O)N[C@@](C)(Cc2ccccc2)C(N)=O)NC1=O` [Compound 82, Ac-[Pen]-Q-T-W-[Lys(Ac)]-[Pen]-Phe[4-(2-aminoethoxy)]-[2-Nal]-[a-MeLys]-[Lys(Ac)]-N-[a-MePhe]-NH2] (Ac-[Pen]QTWK(Ac)[Pen][AEF][2Nal][αMeK]K(Ac)N[αMeF]-NH2; disulfide 1-6) it was 54 nM; in that of `CC(=O)NCCCC[C@@H]1NC(=O)[C@H](Cc2c[nH]c3ccccc23)NC(=O)[C@H]([C@@H](C)O)NC(=O)[C@H](CCC(N)=O)NC(=O)[C@@H](NC(C)=O)C(C)(C)SSC(C)(C)[C@@H](C(=O)N[C@@H](Cc2ccc(OCCN)cc2)C(=O)N[C@@H](Cc2ccc3ccccc3c2)C(=O)N[C@@](C)(CCCCN)C(=O)N[C@@H](CCCCNC(C)=O)C(=O)N[C@@H](CC(N)=O)C(=O)NC2(C(N)=O)CCOCC2)NC1=O` [Compound 84, Ac-[Pen]-Q-T-W-[Lys(Ac)]-[Pen]-Phe[4-(2-aminoethoxy)]-[2-Nal]-[a-MeLys]-[Lys(Ac)]-N-[THP]-NH2] (Ac-[Pen]QTWK(Ac)[Pen][AEF][2Nal][αMeK]K(Ac)N[Thp]-NH2; disulfide 1-6), 54 nM.

In turn, `CC(=O)NCCCC[C@H](NC(=O)[C@](C)(CCCCN)NC(=O)[C@H](Cc1ccc2ccccc2c1)NC(=O)[C@H](Cc1ccc(OCCN)cc1)NC(=O)[C@H]1NC(=O)[C@H](CCC(N)=O)NC(=O)[C@H](Cc2c[nH]c3c(C)cccc23)NC(=O)[C@H]([C@@H](C)O)NC(=O)[C@H](CC(N)=O)NC(=O)[C@@H](NC(C)=O)C(C)(C)SSC1(C)C)C(=O)N[C@@H](CC(N)=O)C(=O)NC1(C(N)=O)CCOCC1` [Compound 87, Ac-[Pen]-N-T-[W(7-Me)]-Q-[Pen]-Phe[4-(2-aminoethoxy)]-[2-Nal]-[a-MeLys]-[Lys(Ac)]-N-[THP]-NH2] showed an IC50 of 3.6 nM.

Take `CC(=O)NCCCC[C@@H]1NC(=O)[C@H](Cc2c[nH]c3ccccc23)NC(=O)[C@H]([C@@H](C)O)NC(=O)[C@H](CC(N)=O)NC(=O)[C@@H](NC(=O)[C@@H](CCCNC(=N)N)NC(C)=O)C(C)(C)SSC(C)(C)[C@@H](C(=O)N[C@@H](Cc2ccc(OCCN)cc2)C(=O)N[C@@H](Cc2ccc3ccccc3c2)C(=O)NC2(C(=O)N[C@@H](CCC(=O)O)C(=O)N[C@@H](CC(N)=O)C(=O)NC3(C(N)=O)CCOCC3)CCCC2)NC1=O` [Compound 88, Ac-[(D)Arg]-[Pen]-N-T-W-[Lys(Ac)]-[Pen]-Phe[4-(2-aminoethoxy)]-[2-Nal]-[Acvc]-E-N-[THP]-NH2] (Ac-[dR][Pen]NTWK(Ac)[Pen][AEF][2Nal][Ac5c]EN[Thp]-NH2; disulfide 2-7): the midpoint of inhibition, the IC50, lay at 3.7 nM.

`CC(=O)NCCCC[C@H](NC(=O)[C@](C)(CCCCN)NC(=O)[C@H](Cc1ccc2ccccc2c1)NC(=O)[C@H](Cc1ccc(OCCN)cc1)NC(=O)[C@H]1NC(=O)[C@H](CCC(N)=O)NC(=O)[C@H](Cc2c[nH]c3c(C)cccc23)NC(=O)[C@H]([C@@H](C)O)NC(=O)[C@H](CC(N)=O)NC(=O)[C@@H](NC(C)=O)C(C)(C)SSC1(C)C)C(=O)N[C@@H](CC(N)=O)C(=O)N[C@@](C)(Cc1ccccc1)C(N)=O` [Compound 89, Ac-[Pen]-N-T-[W(7-Me)]-Q-[Pen]-Phe[4-(2-aminoethoxy)]-[2-Nal]-[a-MeLys]-[Lys(Ac)]-N-[a-MePhe]-NH2] showed an IC50 of 12 nM. In turn, `CC(=O)N[C@H](CCCNC(=N)N)C(=O)N[C@@H]1C(=O)N[C@@H](CC(N)=O)C(=O)N[C@@H]([C@@H](C)O)C(=O)N[C@@H](Cc2c[nH]c3c(C)cccc23)C(=O)N[C@@H](CCC(N)=O)C(=O)N[C@H](C(=O)N[C@@H](Cc2ccc(OCCN)cc2)C(=O)N[C@@H](Cc2ccc3ccccc3c2)C(=O)NC2(C(=O)N[C@@H](CCC(=O)O)C(=O)N[C@@H](CC(N)=O)C(=O)NC3(C(N)=O)CCOCC3)CCOCC2)C(C)(C)SSC1(C)C` [Compound 90, Ac-[(D)Arg]-[Pen]-N-T-[W(7-Me)]-Q-[Pen]-Phe[4-(2-aminoethoxy)]-[2-Nal]-[THP]-E-N-[THP]-NH2] (Ac-[dR][Pen]NT[Trp(7-Me)]Q[Pen][AEF][2Nal][Thp]EN[Thp]-NH2; disulfide 2-7) yielded an IC50 of 3.7 nM. For `CC(=O)N[C@H](CCCNC(=N)N)C(=O)N[C@@H]1C(=O)N[C@@H](CC(N)=O)C(=O)N[C@@H]([C@@H](C)O)C(=O)N[C@@H](Cc2c[nH]c3c(C)cccc23)C(=O)N[C@@H](CCC(N)=O)C(=O)N[C@H](C(=O)N[C@@H](Cc2ccc(OCCN)cc2)C(=O)N[C@@H](Cc2ccc3ccccc3c2)C(=O)NC2(C(=O)N[C@@H](CCC(=O)O)C(=O)N[C@@H](CC(N)=O)C(=O)N[C@@](C)(Cc3ccccc3)C(N)=O)CCOCC2)C(C)(C)SSC1(C)C` [Compound 91, Ac-[(D)Arg]-[Pen]-N-T-[W(7-Me)]-Q-[Pen]-Phe[4-(2-aminoethoxy)]-[2-Nal]-[THP]-E-N-[a-MePhe]-NH2] (Ac-[dR][Pen]NT[Trp(7-Me)]Q[Pen][AEF][2Nal][Thp]EN[αMeF]-NH2; disulfide 2-7), the IC50 turned out to be 4.1 nM.

Consider `CC(=O)NCCCC[C@@H]1NC(=O)[C@H](Cc2c[nH]c3c(C)cccc23)NC(=O)[C@H]([C@@H](C)O)NC(=O)[C@H](CC(N)=O)NC(=O)[C@@H](NC(=O)[C@@H](CCCNC(=N)N)NC(C)=O)C(C)(C)SSC(C)(C)[C@@H](C(=O)N[C@@H](Cc2ccc(OCCN)cc2)C(=O)N[C@@H](Cc2ccc3ccccc3c2)C(=O)NC2(C(=O)N[C@@H](CCC(=O)O)C(=O)N[C@@H](CC(N)=O)C(=O)NC3(C(N)=O)CCOCC3)CCOCC2)NC1=O` [Compound 92, Ac-[(D)Arg]-[Pen]-N-T-[W(7-Me)]-[Lys(Ac)]-[Pen]-Phe[4-(2-aminoethoxy)]-[2-Nal]-[THP]-E-N-[THP]-NH2] (Ac-[dR][Pen]NT[Trp(7-Me)]K(Ac)[Pen][AEF][2Nal][Thp]EN[Thp]-NH2; disulfide 2-7), for which inhibition was half-maximal at 3.3 nM (IC50). With `CC(=O)N[C@H](CCCNC(=N)N)C(=O)N[C@@H]1C(=O)N[C@@H](CC(N)=O)C(=O)N[C@@H]([C@@H](C)O)C(=O)N[C@@H](Cc2c[nH]c3c(C)cccc23)C(=O)N[C@@H](CCC(N)=O)C(=O)N[C@H](C(=O)N[C@@H](Cc2ccc(OCCN)cc2)C(=O)N[C@@H](Cc2ccc3ccccc3c2)C(=O)NC2(C(=O)N[C@@H](CCC(=O)O)C(=O)N[C@@H](CC(N)=O)C(=O)N[C@@](C)(Cc3ccccc3)C(N)=O)CCCC2)C(C)(C)SSC1(C)C` [Compound 93, Ac-[(D)Arg]-[Pen]-N-T-[W(7-Me)]-Q-[Pen]-Phe[4-(2-aminoethoxy)]-[2-Nal]-[Acvc]-E-N-[a-MePhe]-NH2] (Ac-[dR][Pen]NT[Trp(7-Me)]Q[Pen][AEF][2Nal][Ac5c]EN[αMeF]-NH2; disulfide 2-7), the IC50 was 4.6 nM.
